Experimental data reported in patent publication US20080096861A1, “Chemical Compounds” (SMITHKLINE BEECHAM CORPORATION, priority 2004, published 2008).

These compounds were tested on HIV-1 IIIB (assay: HOS HIV-1 infectivity assay). Settings: Human immunodeficiency virus 1, IIIB; as determined by the infectivity assay; strain not stated in Table 2; read-out: Activity Level.
Assay type: cell-based
Method: Compounds were profiled against two HIV-1 viruses, the M-tropic (CCR5 utilizing) Ba-L strain and the T-tropic (CXCR4 utilizing) IIIB strain. Both viruses were propagated in human peripheral blood lymphocytes. Compounds were tested for there ability to block infection of the HOS cell line (expressing hCXCR4/hCCR5/hCD4/pHIV-LTR-luciferase) by either HIV-1 Ba-L or HIV-1 IIIB. Compound cytotoxicity was also examined in the absence of virus addition.
HOS cells (expressing hCXCR4/hCCR5/hCD4/pHIV-LTR-luciferase) were harvested and diluted in Dulbeccos modified Eagles media supplemented with 2% FCS and non-essential amino acid to a concentration of 60,000 cells/ml. The cells were plated into 96-well plates (100 ul per well) and the plates were placed in a tissue culture incubator (37° C.; 5% CO2/95% air) for a period of 24 h.
Subsequently, 50 ul of the desired drug solution (4 times the final concentration) was added to each well and the plates were returned to the tissue culture incubator (37° C.; 5% CO2/95% air) for 1 h. Following this incubation 50 ul of diluted virus was added to each well (approximately 2 million RLU per well of virus). The plates were returned to the tissue culture incubator (37° C.; 5% CO2/95% air) and were incubated for a further 96 h.
Following this incubation the endpoint for the virally infected cultures was quantified following addition of Steady-Glo Luciferase assay system reagent (Promega, Madison, Wis.). Cell viability or non-infected cultures was measured using a CellTiter-Glo luminescent cell viability assay system (Promega, Madison, Wis.). All luminescent readouts are performed on a Topcount luminescence detector (Packard, Meridien, Conn.).
For `CN(Cc1nc2ccccc2n1CC1CCNC1)C1CCCc2cccnc21` (stereo not drawn) [Example 8c, N-Methyl-N-{[1-(3-pyrrolidinylmethyl)-1H-benzimidazol-2-yl]methyl}-5,6,7,8-tetrahydro-8-quinolinamine], the IC50 was < 100 nM.
For `CN(Cc1nc2ccccc2n1CC1CNC1)C1CCCc2cccnc21` (stereo not drawn) [Example 10d, N-{[1-(3-Azetidinylmethyl)-1H-benzimidazol-2-yl]methyl}-N-methyl-5,6,7,8-tetrahydro-8-quinolinamine], the IC50 was < 100 nM.
For `CN(Cc1nc2ccccc2n1C1CCNCC1)C1CCCc2cccnc21` (stereo not drawn) [Example 11h, N-Methyl-N-{[1-(4-piperidinyl)-1H-benzimidazol-2-yl]methyl}-5,6,7,8-tetrahydro-8-quinolinamine], the IC50 was < 100 nM.
In the case of `CN(Cc1nc2ccccc2n1CCCN)C1CCCc2cccnc21` (stereo not drawn) [Example 15b, N-{[1-(3-Aminopropyl)-1H-benzimidazol-2-yl]methyl}-N-methyl-5,6,7,8-tetrahydro-8-quinolinamine], the IC50 is reported as < 100 nM.
For `CN(Cc1nc2ccccc2n1CCC1CCCCN1)C1CCCc2cccnc21` (stereo not drawn) [Example 23d, N-Methyl-N-({1-[2-(2-piperidinyl)ethyl]-1H-benzimidazol-2-yl}methyl)-5,6,7,8-tetrahydro-8-quinolinamine], the IC50 was < 100 nM.
For `CN(Cc1nc2ccccc2n1Cc1ccccn1)C1CCCc2cccnc21` (stereo not drawn) [Example 26, N-Methyl-N-{[1-(2-pyridinylmethyl)-1H-benzimidazol-2-yl]methyl}-5,6,7,8-tetrahydro-8-quinolinamine], the IC50 was 500 to 10000 nM.
`CN(Cc1nc2ccccc2n1Cc1ccncc1)C1CCCc2cccnc21` (stereo not drawn) [Example 27, N-Methyl-N-{[1-(4-pyridinylmethyl)-1H-benzimidazol-2-yl]methyl}-5,6,7,8-tetrahydro-8-quinolinamine] gave an IC50 of 100 to 500 nM.
`CN(Cc1nc2ccccc2n1CC(=O)NCc1ccncc1)C1CCCc2cccnc21` (stereo not drawn) [Example 28, 2-(2-{[Methyl(5,6,7,8-tetrahydro-8-quinolinyl)amino]methyl}-1H-benzimidazol-1-yl)-N-(4-pyridinylmethyl)acetamide] showed an IC50 of 100 to 500 nM.
With `CN(Cc1nc2ccccc2n1CC(=O)NCc1cccnc1)C1CCCc2cccnc21` (stereo not drawn) [Example 29, 2-(2-{[Methyl(5,6,7,8-tetrahydro-8-quinolinyl)amino]methyl}-1H-benzimidazol-1-yl)-N-(3-pyridinylmethyl)acetamide] the IC50 was < 100 nM.
Compound `CN(Cc1nc2ccccc2n1CC(=O)NCCCN)C1CCCc2cccnc21` (stereo not drawn) [Example 30, N-(3-Aminopropyl)-2-(2-{[methyl(5,6,7,8-tetrahydro-8-quinolinyl)amino]methyl}-1H-benzimidazol-1-yl)acetamide] has an IC50 of 100 to 500 nM.
Work on `CN(Cc1nc2ccccc2n1CC(=O)NCCN)C1CCCc2cccnc21` (stereo not drawn) [Example 31, N-(2-Aminoethyl)-2-(2-{[methyl(5,6,7,8-tetrahydro-8-quinolinyl)amino]methyl}-1H-benzimidazol-1-yl)acetamide] yielded an IC50 of 100 to 500 nM.
For `CN(Cc1nc2ccccc2n1CC(=O)N1CCNCC1)C1CCCc2cccnc21` (stereo not drawn) [Example 32, N-Methyl-N-({1-[2-oxo-2-(1-piperazinyl)ethyl]-1H-benzimidazol-2-yl}methyl)-5,6,7,8-tetrahydro-8-quinolinamine], the IC50 was 500 to 10000 nM.
For `CN(Cc1nc2ccccc2n1CC(=O)NCc1ccccn1)C1CCCc2cccnc21` (stereo not drawn) [Example 33, 2-(2-{[Methyl(5,6,7,8-tetrahydro-8-quinolinyl)amino]methyl}-1H-benzimidazol-1-yl)-N-(2-pyridinylmethyl)acetamide], the IC50 was 100 to 500 nM.
`CN(Cc1nc2ccccc2n1[C@H]1CC[C@H](N(C)C)CC1)C1CCCc2cccnc21` (stereo partly drawn) [Example 35, N-({1-[trans-4-(Dimethylamino)cyclohexyl]-1H-benzimidazol-2-yl}methyl)-N-methyl-5,6,7,8-tetrahydro-8-quinolinamine] gave an IC50 of 100 to 500 nM.
Compound `CN(Cc1nc2ccccc2n1CCc1cccnc1)C1CCCc2cccnc21` (stereo not drawn) [Example 36] has an IC50 of 100 to 500 nM.
